Assay results as given in patent US20240115564A1, “HTR1F ANTAGONISTS FOR IMPROVEMENT OF BETA CELL SURVIVAL AND FUNCTION” (The Regents of the University of California, priority 2021, published 2024).

Legend:
human islets = assay: Glucose-stimulated insulin release in human islets; type: cell-based; settings: 150 nM, 11 mM glucose, 9 human islet donors, vs DMSO
Experimental: Human islets were rested for 24 hours after receipt in CMRL 1066 (Media Tech) supplemented with penicillin and streptomycin, B27 supplement, Glutamax (Thermo), and non-essential amino acids (Thermo). For both the test treatment group and the control treatment group, 40-60 islets for each of the 5 replicates were hand-picked. The islets were equilibrated for two hours at 37° C. in Kreb-Ringer Bicarbonate HEPES Buffer pH 7.4 (KRBH; 137 mM NaCl, 4.7 mM KCl, 1.2 mM KH2PO4, 1.2 mM MgSO4, 2.5 mM CaCl2), 25 mM NaHCO3, 20 mM HEPES, 2.8 mM glucose, and 0.25% BSA). Equilibration buffer was then removed and islets were incubated at 37° C. with KRBH pH 7.4 with 2.8 mM glucose and 0.25% BSA and were treated with DMSO or 150 nM HTR1F antagonist 1-(2-hydroxy-3-(naphthalen-2-yloxy)propyl)-4-(quinolin-3-yl)piperidin-4-ol. After 1 hour, islet secretion was collected and islets were treated with KRBH pH 7.4 containing 11 mM glucose and 0.25% BSA and were treated with DMSO or 150 nM antagonist at 37° C. for another hour. Following incubation, islet secretions were collected and the islets were lysed in RIPA buffer to determine the total islet insulin content. Islet secretions were diluted 2-5 fold for analysis with the Mercodia insulin ELISA kit and lysates were diluted 200-500 fold for analysis. […]

HTR1F [1] = target: T1, HTR1F (Homo sapiens, UniProt P30939); assay: Glosensor cAMP assay in 293T cells transfected with HTR1F cDNA; type: cell-based; design: from tissue; host or cells: primary human islets from cadaveric donors, transplanted under the kidney capsule of scid-beige mice; settings: 10 minutes pre-treatment, serotonin 5 nM then forskolin
T1 sequence (P30939 1-366): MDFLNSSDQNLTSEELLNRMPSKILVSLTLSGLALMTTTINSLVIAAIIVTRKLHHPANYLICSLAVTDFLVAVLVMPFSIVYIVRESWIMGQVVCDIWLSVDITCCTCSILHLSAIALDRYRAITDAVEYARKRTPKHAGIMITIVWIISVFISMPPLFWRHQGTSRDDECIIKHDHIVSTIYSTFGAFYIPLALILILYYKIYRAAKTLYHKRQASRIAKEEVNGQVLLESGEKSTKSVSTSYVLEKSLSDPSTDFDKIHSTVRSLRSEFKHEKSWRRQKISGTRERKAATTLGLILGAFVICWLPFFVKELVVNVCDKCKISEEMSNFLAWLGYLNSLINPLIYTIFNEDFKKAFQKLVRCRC
Experimental: 293T cells were transiently transfected with the Glosensor plasmid (Promega) and the HTR1F cDNA. The cells were pre-treated with 1-(2-hydroxy-3-(naphthalen-2-yloxy)propyl)-4-(quinolin-3-yl)piperidin-4-ol at the concentrations shown in FIG. 4 for 10 minutes, then with serotonin (5 nM), and then forskolin and luminescence was determined. n=5, error bars show standard error. […] N=5 per concentration.

primary human islet cell = assay: Sytox Green cell death assay in dissociated human islets treated with HTR1F agonist; type: cell-based; settings: 24 hours, two independent donors
Experimental: Dissociated human islets were treated with the indicated doses of LY344864 for 24 hours. Dead cells were monitored by Sytox Green. The number of Sytox Green nuclei were normalized to cell density measured by bright field imaging. n=4 biological replicates for each donor. *p<0.05, **p<0.01 by post-hoc Student's t-test after one-way ANOVA versus vehicle treatment.
(§1) Human beta cell death and proliferation: Islets were dissociated and plated on 804G coated plates as done for the screens. For Sytox Green assays, islets were plated into 96 well plates and Sytox Green (Thermo) was added to the media (30 nM) and green fluorescence and bright field images were captured at 24 hours during culture (Incucyte). The number of green nuclei normalized to the cell density (calculated by brightfield image) was measured in biological triplicate (FIG. 2A). For FIG. 3C, dead nuclei were normalized to total nuclei as measured after treatment of the cells with 0.0625% Triton X-100. For the in vitro TUNEL assay (FIG. 2B and FIG. 2C), cells were fixed in 4% paraformaldehyde in calcium/magnesium free PBS for 15 minutes at room temperature, permeabilized with 0.1% Triton X-100 for 1 hour, blocked with 10% donkey serum in PBS for 1 hour at room temperature, and stained with guinea pig anti-insulin antibody (Agilent) overnight at 4 degrees. […]

primary human beta cells = assay: TUNEL / insulin staining of dissociated human islets (beta cell death); type: cell-based; settings: at 10 nM, 24 hours, 4 donors
Experimental: A representative image is shown. White arrows represent cells that are TUNEL+ insulin+ cells. Scale bar is 25 μM.
Given differences in baseline cell death between donors, the fold increase in the fraction of TUNEL+ beta cells over vehicle control is plotted. Standard error is shown, n=4 donors with at least 400 beta cells counted for each donor. *p<0.05, one-way ANOVA, post-hoc tested against vehicle.
as §1

HTR1F [2] = target: T1, HTR1F; settings: read-out: reported EC50; cited from earlier work
other HTR1 receptors = settings: cited from earlier work
[3] = target: other serotonin family GPCRs and adrenergic receptors; settings: cited from earlier work
dissociated human islets = assay: Sytox Green cell death in dissociated human islets with thapsigargan and methysergide; type: cell-based; settings: 48 hours
Experimental: Each graph is from an independent donor. *p<0.05 for thapsigargan and for the interaction between methysergide and thapsigargan by 2-way ANOVA. Standard error is shown.
as §1, with “degrees. Secondary antibody was anti-guinea pig 488 (Thermo) at 1:300 for 1 hour at room temperature. For TUNEL staining, In Situ Death Detection Kit, TMR red (Roche) was used per the manufacturer's protocol in combination with insulin staining as above.” for “degrees.”

[4] = test system: scd beige mice receiving human islets; assay: Minimal (marginal mass) human islet transplant model with methysergide; type: in vivo, mouse; settings: islets 300 nM 24 hours; mice 10 mg/kg daily peri-transplant, 5 days; p<0.05 log-rank
Experimental: Taken together, FIGS. 3A-3D illustrate the prevention of human beta cell death by blocking of HTR1F signaling.
Minimal human islet transplant model with methysergide: Human islets were treated with 300 nM methysergide maleate or vehicle for 24 hours after isolation. Seven-hundred IEq were then transplanted under the kidney capsule of scd beige mice. Four hours prior to transplant, recipient mice were injected with either 10 mg/kg methysergide maleate or vehicle. After transplant, mice were injected every 24 hours with 10 mg/kg methysergide or vehicle for 5 days. After 48 hours without methysergide treatment to allow washout of the drug, streptozotocin (250 mg/kg) was injected into the peritoneal space with 1 mL of normal saline injected subcutaneously for hydration. […] Blood glucose was assessed by glucometer (Freestyle Lite) after a 6 hour fast (9 am-3 pm). […]
To ask if improved human beta cell survival due to HTR1F inhibition could improve glycemia after transplant, human islets were treated with methysergide or vehicle and then a marginal mass of islets was transplanted into mice. […] After 2 days to allow for methysergide clearance, the endogenous mouse beta cells were destroyed using streptozotocin and monitored for diabetes development. […]

HTR1F [5] = target: T1, HTR1F; settings: cited from earlier work
[6] = cited from earlier work
[7] = test system: MIN6 cells transfected with GFP-T2A-HTR1F; assay: MIN6 cell death after HTR1F expression (propidium iodide); type: cell-based, mouse; settings: 200 ng/mL pre-incubation, 32-40 hours after transfection
Experimental: GFP+ cells were assessed for cell death by propidium iodide staining 32-40 hours after transfection. […] Significant post-hoc Holm adjusted Student's t-test comparisons are shown. n=33 for each group conducted over 3 independent experiments. Taken together, FIGS. 2A-2D illustrate the induction of primary human beta cell death by HTR1F signaling.
MIN6 cell death: The human HTR1F cDNA was cloned from 293T cDNA and cloned downstream of a CMV promoter GFP-T2A expression vector with the addition of a viral signal sequence and FLAG epitope tag as previously described. The sequence was confirmed by Sanger sequencing. 10,000 MIN6 cells were plated in a 96-well plate. The following day, the cells were transfected with either the parental GFP-T2A expression vector or GFP-T2A-HTR1F using Lipofectamine 2000 (Thermo Fisher). Six hours after transfection, the media was changed to one containing propidium iodide (Thermo Fisher) at 0.3 ug/mL. The percentage of GFP+ cells that were also PI+ was measured by automated fluorescence microscopy (IncuCyte, Essen Biosciences) at 32-40 hours after transfection. For pertussis toxin (Enzo), cells were treated with 200 ng/mL during cell plating and during transfection.

OC(COc1ccc2ccccc2c1)CN1CCC(O)(c2cnc3ccccc3c2)CC1 (centres unmarked) [1-(2-hydroxy-3-(naphthalen-2-yloxy)propyl)-4-(quinolin-3-yl)piperidin-4-ol]
increase in insulin secretion at high glucose concentration (human islets): 40% | inhibition of HTR1F (cAMP luminescence) (HTR1F [1]): inhibition of HTR1F

CN(C)[C@@H]1CCc2[nH]c3ccc(NC(=O)c4ccc(F)cc4)cc3c2C1 [LY344864]
primary human islet cell death (Sytox Green) (primary human islet cell): increase primary human islet cell death | beta cell death (TUNEL+ insulin+ cells) (primary human beta cells): increase beta cell death | EC50 (HTR1F [2]): 0.003 µM | Ki (other HTR1 receptors): > 0.5 µM | Ki [3]: 1.5 to 5 µM

CC[C@@H](CO)NC(=O)[C@@H]1C=C2c3cccc4c3c(cn4C)C[C@H]2N(C)C1 [methysergide, (6aR,9R)—N—((S)-1-hydroxybutan-2-yl)-4,7-dimethyl-4,6,6a,7,8,9-hexahydroindolo[4,3-fg]quinoline-9-carboxamide]
effect on death triggered by thapsigargan (dissociated human islets; 30 nM methysergide with 10 μM thapsigargan): prevent death | effect of methysergide alone on islet cell death (dissociated human islets; 30 nM, dissociated cultures): no effect | diabetes-free survival / development of diabetes after streptozotocin [4]: protect mice from the development of diabetes | inhibition of HTR1F (HTR1F [5]): potently inhibit | risk during chronic treatment ([6]; chronic treatment): risk of retroperitoneal fibrosis | insulin secretion in humans ([6]; humans): increase insulin secretion

pertussis toxin
effect on HTR1F-induced cell death [7]: blocked
